# From article PMC11167047 (Cell Death Discovery, 2024)
# How the values were obtained:
# Test in all cases: kinome screen (33PanQinase)
# Type in all cases: biochemical
# PRK1 = biological target: T1, PRK1 (Homo sapiens, UniProt Q16512)
# T1 construct: purchased Reaction Biology Europe GmbH (formerly ProQinase)
# Procedure: (§1) The Kinome Screening was performed by Reaction Biology Europe GmbH (http://reactionbiology.com; Freiburg i. Br., Germany).
# MKNK2 = biological target: T2, MKNK2 (Homo sapiens, UniProt Q9HBH9)
# T2 construct: purchased Reaction Biology Europe GmbH (formerly ProQinase)
# Procedure: as §1
# RIPK4 = biological target: T3, RIPK4 (Homo sapiens, UniProt P57078)
# T3 construct: purchased Reaction Biology Europe GmbH (formerly ProQinase)
# T3 sequence (P57078 1-832): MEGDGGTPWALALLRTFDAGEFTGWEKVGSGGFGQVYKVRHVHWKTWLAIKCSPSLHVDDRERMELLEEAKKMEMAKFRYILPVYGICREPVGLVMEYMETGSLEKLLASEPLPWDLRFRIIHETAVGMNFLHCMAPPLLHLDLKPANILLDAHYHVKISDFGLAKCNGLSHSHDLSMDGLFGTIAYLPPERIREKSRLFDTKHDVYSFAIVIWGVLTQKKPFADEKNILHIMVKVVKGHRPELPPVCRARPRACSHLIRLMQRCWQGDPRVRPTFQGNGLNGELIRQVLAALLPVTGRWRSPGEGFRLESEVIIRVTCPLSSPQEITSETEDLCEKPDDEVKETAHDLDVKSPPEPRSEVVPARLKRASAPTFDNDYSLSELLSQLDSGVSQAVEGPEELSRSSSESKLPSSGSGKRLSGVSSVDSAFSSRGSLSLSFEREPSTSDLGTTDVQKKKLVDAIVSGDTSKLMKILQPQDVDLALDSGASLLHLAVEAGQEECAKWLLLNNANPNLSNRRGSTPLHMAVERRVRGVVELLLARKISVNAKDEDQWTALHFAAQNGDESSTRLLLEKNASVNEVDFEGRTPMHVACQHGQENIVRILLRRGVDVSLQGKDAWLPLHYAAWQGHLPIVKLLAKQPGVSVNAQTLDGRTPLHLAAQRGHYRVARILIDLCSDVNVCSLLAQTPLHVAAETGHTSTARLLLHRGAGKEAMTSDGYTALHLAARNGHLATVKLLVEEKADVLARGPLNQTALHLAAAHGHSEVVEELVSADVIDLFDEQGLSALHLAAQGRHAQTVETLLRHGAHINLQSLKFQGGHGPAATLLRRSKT
# Procedure: as §1
# PAK2 = biological target: T4, PAK2 (Homo sapiens, UniProt Q13177)
# T4 construct: purchased Reaction Biology Europe GmbH (formerly ProQinase)
# Procedure: as §1
# DAPK3 = biological target: T5, DAPK3 (Homo sapiens, UniProt O43293)
# T5 construct: purchased Reaction Biology Europe GmbH (formerly ProQinase)
# Procedure: as §1
# FGFR3 = biological target: T6, FGFR3 (Homo sapiens, UniProt P22607)
# T6 construct: purchased Reaction Biology Europe GmbH (formerly ProQinase)
# Procedure: as §1
# MERTK = biological target: T7, MERTK (Homo sapiens, UniProt Q12866)
# T7 construct: purchased Reaction Biology Europe GmbH (formerly ProQinase)
# T7 sequence (Q12866 21-999): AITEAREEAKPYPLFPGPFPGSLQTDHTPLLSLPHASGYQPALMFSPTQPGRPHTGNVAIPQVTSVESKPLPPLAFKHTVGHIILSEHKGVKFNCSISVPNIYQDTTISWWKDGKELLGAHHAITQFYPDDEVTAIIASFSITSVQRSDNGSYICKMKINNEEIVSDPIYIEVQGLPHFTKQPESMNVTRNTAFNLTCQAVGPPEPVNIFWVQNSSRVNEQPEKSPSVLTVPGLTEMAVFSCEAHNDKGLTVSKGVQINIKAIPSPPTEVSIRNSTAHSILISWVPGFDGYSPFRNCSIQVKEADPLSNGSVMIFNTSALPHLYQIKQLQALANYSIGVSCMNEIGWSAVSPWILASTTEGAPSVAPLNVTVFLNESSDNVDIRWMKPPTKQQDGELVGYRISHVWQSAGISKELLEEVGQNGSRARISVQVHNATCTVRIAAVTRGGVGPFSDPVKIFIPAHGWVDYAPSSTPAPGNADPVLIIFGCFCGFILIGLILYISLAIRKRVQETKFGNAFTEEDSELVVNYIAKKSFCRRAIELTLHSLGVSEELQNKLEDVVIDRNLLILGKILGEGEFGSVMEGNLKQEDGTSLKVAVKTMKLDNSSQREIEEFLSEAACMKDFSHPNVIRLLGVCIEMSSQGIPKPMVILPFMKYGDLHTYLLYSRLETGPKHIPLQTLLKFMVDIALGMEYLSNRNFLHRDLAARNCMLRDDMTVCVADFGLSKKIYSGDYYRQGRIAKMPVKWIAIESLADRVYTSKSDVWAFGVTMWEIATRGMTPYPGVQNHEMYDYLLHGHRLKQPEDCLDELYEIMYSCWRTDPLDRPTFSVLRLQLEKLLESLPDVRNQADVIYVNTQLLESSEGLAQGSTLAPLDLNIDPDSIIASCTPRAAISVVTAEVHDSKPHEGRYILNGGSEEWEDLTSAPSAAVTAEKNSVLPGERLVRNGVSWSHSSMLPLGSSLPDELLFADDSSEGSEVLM
# Procedure: as §1
# PKCβ2 = biological target: T8, PKCβ2 (Homo sapiens, UniProt P05771)
# T8 construct: purchased Reaction Biology Europe GmbH (formerly ProQinase)
# Procedure: as §1
# ACVR1B = biological target: T9, ACVR1B (Homo sapiens, UniProt P36896)
# T9 construct: purchased Reaction Biology Europe GmbH (formerly ProQinase)
# T9 sequence (P36896 24-505): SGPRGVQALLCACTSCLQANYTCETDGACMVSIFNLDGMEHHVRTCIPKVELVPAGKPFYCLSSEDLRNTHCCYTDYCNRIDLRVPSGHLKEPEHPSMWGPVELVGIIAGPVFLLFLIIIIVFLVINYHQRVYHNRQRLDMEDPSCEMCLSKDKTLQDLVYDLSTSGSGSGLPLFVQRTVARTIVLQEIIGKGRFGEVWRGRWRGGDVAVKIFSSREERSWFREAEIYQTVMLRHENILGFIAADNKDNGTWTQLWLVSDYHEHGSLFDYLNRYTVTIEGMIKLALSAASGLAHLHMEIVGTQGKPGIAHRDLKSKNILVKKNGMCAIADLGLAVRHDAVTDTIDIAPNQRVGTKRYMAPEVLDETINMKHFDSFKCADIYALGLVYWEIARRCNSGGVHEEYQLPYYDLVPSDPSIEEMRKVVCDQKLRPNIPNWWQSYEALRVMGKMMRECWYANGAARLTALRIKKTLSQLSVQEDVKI
# Procedure: as §1
# T5 sequence (O43293 whole entry): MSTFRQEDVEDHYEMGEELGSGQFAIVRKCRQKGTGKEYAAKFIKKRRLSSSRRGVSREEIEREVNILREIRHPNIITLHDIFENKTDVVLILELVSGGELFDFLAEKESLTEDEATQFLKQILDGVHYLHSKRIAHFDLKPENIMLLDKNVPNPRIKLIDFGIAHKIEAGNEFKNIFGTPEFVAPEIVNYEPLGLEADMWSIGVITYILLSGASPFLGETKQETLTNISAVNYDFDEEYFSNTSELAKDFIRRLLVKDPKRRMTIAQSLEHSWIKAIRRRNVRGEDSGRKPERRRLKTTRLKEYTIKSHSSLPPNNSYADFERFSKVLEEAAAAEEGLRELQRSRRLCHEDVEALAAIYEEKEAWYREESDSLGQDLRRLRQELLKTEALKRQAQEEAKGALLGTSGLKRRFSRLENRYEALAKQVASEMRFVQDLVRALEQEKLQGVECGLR
# T8 sequence (P05771 1-673 isoform P05771-2): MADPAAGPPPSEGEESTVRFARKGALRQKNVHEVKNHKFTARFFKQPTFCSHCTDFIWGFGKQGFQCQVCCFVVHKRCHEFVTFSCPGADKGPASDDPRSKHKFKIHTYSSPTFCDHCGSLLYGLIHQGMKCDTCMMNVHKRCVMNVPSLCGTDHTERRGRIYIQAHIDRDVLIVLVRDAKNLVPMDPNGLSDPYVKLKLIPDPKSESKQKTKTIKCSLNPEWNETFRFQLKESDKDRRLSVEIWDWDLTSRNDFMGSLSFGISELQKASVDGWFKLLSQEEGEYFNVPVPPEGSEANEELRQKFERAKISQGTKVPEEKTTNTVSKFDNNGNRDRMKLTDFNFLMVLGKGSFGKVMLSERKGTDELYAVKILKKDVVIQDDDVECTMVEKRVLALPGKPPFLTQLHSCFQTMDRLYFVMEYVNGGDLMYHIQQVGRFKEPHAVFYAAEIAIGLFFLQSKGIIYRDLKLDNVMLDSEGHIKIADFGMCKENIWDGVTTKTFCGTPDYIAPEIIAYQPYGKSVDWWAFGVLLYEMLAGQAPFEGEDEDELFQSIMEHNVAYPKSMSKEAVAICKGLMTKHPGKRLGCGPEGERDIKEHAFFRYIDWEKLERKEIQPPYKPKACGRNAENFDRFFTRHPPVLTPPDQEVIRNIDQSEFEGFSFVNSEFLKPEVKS
# T1 sequence (Q16512 whole entry): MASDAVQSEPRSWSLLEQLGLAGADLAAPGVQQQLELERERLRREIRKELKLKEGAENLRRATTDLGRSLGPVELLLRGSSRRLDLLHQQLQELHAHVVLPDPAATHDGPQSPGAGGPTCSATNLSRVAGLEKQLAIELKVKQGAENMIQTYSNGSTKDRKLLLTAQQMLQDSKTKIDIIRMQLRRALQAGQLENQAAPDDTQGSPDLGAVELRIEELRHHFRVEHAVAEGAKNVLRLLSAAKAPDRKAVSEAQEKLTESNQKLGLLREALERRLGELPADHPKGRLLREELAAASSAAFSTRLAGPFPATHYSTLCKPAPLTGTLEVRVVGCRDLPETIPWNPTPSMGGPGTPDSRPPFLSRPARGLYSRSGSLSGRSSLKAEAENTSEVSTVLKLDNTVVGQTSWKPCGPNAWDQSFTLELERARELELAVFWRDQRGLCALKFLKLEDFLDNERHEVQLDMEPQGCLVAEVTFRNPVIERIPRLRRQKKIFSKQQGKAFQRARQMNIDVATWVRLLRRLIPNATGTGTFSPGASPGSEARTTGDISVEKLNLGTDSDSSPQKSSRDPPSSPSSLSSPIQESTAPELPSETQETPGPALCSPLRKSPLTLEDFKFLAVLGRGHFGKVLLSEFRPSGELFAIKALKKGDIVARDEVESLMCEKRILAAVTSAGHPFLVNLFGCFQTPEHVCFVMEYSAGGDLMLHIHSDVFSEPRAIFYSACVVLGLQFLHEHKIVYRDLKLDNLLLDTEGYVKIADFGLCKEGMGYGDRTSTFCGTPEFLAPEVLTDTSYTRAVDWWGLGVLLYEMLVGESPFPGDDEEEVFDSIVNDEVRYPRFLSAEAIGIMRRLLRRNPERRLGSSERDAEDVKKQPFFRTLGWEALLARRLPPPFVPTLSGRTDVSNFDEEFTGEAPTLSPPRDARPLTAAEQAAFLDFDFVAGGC
# T6 sequence (P22607 23-806): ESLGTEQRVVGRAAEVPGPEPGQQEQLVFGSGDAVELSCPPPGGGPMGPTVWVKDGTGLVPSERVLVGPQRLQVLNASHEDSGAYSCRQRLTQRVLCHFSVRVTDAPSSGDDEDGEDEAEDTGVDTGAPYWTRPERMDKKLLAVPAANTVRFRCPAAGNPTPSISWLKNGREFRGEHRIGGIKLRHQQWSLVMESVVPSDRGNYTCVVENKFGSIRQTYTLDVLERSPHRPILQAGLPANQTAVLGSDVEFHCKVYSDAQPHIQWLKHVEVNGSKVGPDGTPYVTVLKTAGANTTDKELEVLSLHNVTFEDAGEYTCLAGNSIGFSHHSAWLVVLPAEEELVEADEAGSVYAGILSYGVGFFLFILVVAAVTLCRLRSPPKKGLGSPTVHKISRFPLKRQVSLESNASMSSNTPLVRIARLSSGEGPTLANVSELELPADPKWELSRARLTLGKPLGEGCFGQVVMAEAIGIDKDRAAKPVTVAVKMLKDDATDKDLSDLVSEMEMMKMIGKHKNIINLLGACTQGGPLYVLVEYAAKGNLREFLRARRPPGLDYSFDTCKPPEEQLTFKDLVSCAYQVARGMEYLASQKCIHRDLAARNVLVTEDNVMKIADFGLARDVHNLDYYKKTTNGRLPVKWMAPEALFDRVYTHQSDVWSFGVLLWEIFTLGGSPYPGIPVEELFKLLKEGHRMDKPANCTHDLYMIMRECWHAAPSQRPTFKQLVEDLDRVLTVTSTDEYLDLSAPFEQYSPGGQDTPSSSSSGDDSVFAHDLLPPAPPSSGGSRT
# T4 sequence (Q13177 whole entry): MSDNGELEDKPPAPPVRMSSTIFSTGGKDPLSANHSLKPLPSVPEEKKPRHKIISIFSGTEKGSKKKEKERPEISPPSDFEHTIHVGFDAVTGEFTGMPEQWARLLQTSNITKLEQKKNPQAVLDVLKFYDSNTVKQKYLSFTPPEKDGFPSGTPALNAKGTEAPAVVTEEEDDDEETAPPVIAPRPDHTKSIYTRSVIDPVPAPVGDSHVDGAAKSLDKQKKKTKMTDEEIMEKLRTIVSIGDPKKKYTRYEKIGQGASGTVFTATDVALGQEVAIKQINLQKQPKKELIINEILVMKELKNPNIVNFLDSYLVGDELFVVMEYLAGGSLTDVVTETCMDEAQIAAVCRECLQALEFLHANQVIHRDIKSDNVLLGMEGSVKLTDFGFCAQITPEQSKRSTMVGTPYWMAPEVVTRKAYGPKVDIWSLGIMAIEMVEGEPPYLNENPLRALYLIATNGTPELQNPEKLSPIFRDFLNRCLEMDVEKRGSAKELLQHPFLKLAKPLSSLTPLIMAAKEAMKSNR
# T2 sequence (Q9HBH9 whole entry): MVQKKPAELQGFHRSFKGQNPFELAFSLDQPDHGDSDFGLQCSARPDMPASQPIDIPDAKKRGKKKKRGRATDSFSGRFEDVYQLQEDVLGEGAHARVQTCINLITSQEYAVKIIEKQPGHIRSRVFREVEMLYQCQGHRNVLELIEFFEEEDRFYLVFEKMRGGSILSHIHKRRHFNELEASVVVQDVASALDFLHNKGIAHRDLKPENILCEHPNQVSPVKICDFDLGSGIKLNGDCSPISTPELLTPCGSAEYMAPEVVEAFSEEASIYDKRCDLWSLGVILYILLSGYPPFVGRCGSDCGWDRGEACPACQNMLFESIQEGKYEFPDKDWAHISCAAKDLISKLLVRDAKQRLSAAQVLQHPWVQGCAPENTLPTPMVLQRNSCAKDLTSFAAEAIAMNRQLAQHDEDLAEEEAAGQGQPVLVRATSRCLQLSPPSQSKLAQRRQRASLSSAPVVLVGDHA
SMILES,residual kinase activity (PRK1; 0.3 µM),residual kinase activity (MKNK2; 0.3 µM),residual kinase activity (RIPK4; 0.3 µM),residual kinase activity (PAK2; 0.3 µM),residual kinase activity (DAPK3; 0.3 µM),residual kinase activity (FGFR3; 0.3 µM),residual kinase activity (MERTK; 0.3 µM),residual kinase activity (PKCβ2; 0.3 µM),residual kinase activity (ACVR1B; 0.3 µM),also measured
COc1ccnc2[nH]cc(-c3cc(N)nc(N)c3)c12 [meriolin 16],35 % of control,62 % of control,75 % of control,93 % of control,51 % of control,84 % of control,86 % of control,71 % of control,69 % of control,residual kinase activity (PRK1; 0.03 µM): 84 % of control; residual kinase activity (MKNK2; 0.03 µM): 93 % of control; residual kinase activity (RIPK4; 0.03 µM): 94 % of control; residual kinase activity (PAK2; 0.03 µM): 92 % of control; residual kinase activity (DAPK3; 0.03 µM): 98 % of control; residual kinase activity (FGFR3; 0.03 µM): 93 % of control; residual kinase activity (MERTK; 0.03 µM): 97 % of control; residual kinase activity (PKCβ2; 0.03 µM): 106 % of control; residual kinase activity (ACVR1B; 0.03 µM): 75 % of control
c1ccc(CNc2cc(-c3c[nH]c4ncccc34)ccn2)cc1 [meriolin 36],17 % of control,16 % of control,88 % of control,71 % of control,80 % of control,64 % of control,69 % of control,51 % of control,43 % of control,residual kinase activity (PRK1; 3 µM): 3 % of control; residual kinase activity (MKNK2; 3 µM): 3 % of control; residual kinase activity (RIPK4; 3 µM): 45 % of control; residual kinase activity (PAK2; 3 µM): 17 % of control; residual kinase activity (DAPK3; 3 µM): 25 % of control; residual kinase activity (FGFR3; 3 µM): 20 % of control; residual kinase activity (MERTK; 3 µM): 36 % of control; residual kinase activity (PKCβ2; 3 µM): 11 % of control; residual kinase activity (ACVR1B; 3 µM): 10 % of control
